Reference: patent US11753445B2, “Therapeutic peptides” (COHBAR, INC., priority 2016, dated 2023)
Blank lines part the entries; values can stand above or below the substance they belong to.

What was measured:
Human Primary Adipocytes [1] = assay: Free fatty acid levels in cultured human primary adipocytes, isoproterenol stimulated (Example 4); assay type: cell-based; settings: test peptides 25 μM; isoproterenol 1 nM
Procedure: Human primary adipocytes were seeded at 5,000-100,000 cells per well on 96-well, 48-well, or 24-well plates in Pre-adipocyte Medium (Zen-Bio, Durham, N.C.) and grown to confluence at 37° C. in a humidified atmosphere of 5% CO2/95% air. Two days after confluence, cells were placed in Adipocyte Differentiation Medium (Zen-Bio, Durham, N.C.) and cultured for three additional days at 37° C. in a humidified atmosphere of 5% CO2/95% air. The culture media was then replaced with Adipocyte Maintenance Medium (Zen-Bio) and the cells were maintained for an additional 11-21 days at 37° C. in a humidified atmosphere of 5% CO2/95% air with partial medium replacement every other day. Following 14-24 days of differentiation, test peptides were added at a final concentration of 25 μM and incubated for 18-20 hours in Adipocyte Maintenance Medium at 37° C. in a humidified atmosphere of 5% CO2/95%. After 18-20 hours, the media was exchanged with fresh Adipocyte Maintenance Medium containing test peptides and incubated for 1 h at 37° C. in a humidified atmosphere of 5% CO2/95%. After 1 h media was exchanged with Assay Buffer (Zen-Bio) containing isoproterenol (1 nM) (added to all samples except untreated controls) and test peptides. Cells were incubated for a further 3 hours at 37° C. in a humidified atmosphere of 5% CO2/95%. Free fatty acid concentrations in the media were determined using a Free Fatty Acid Assay Kit (Zen-Bio) according to the manufacturer's instructions using a plate reader (540 nm). Absorbance values were corrected for untreated background and expressed relative to isoproterenol treated cells. Treatment with isoproterenol (1 nM) alone was used as the free fatty acid level stimulatory control. The relative standard deviation of the isoproterenol control was <14%. […] Free fatty acid levels for insulin (100 nM) treatment were <5% of the isoproterenol control value.

[2] = Stability in mouse plasma, peptides 10 uM (Example 15); assay type: in vitro ADME; settings: mouse plasma 37° C., peptide 10 uM
Procedure: Peptides (10 uM) were incubated in pooled mouse plasma at 37° C. and samples were removed and immediately analyzed for the concentration of intact peptide by LC/MS/MS over the course of 3 hours. The percent of peptide remaining in plasma at each time point was calculated relative to the initial peak area (Table 13).

Human Primary Adipocytes [3] = assay: Free fatty acid levels in cultured human primary adipocytes, forskolin stimulated (Example 5); assay type: cell-based; settings: test peptides 25 μM; forskolin 1 μM
Procedure: Human primary adipocytes were seeded at 5,000-100,000 cells per well on 96-well, 48-well, or 24-well plate in Pre-adipocyte Medium (Zen-Bio, Durham, N.C.) and grown to confluence at 37° C. in a humidified atmosphere of 5% CO2/95% air. Two days after confluence, cells were placed in Adipocyte Differentiation Medium (Zen-Bio, Durham, N.C.) and cultured for three additional days at 37° C. in a humidified atmosphere of 5% CO2/95% air. The culture media was then replaced with Adipocyte Maintenance Medium (Zen-Bio) and the cells were maintained for an additional 11-21 days at 37° C. in a humidified atmosphere of 5% CO2/95% air with partial medium replacement every other day. Following 14-24 days of differentiation, test peptides were added at a final concentration of 25 μM and incubated for 18-20 hours in Adipocyte Maintenance Medium at 37° C. in a humidified atmosphere of 5% CO2/95%. After 18-20 hours, the media was exchanged with fresh Adipocyte Maintenance Medium containing test peptides and incubated for 1 h at 37° C. in a humidified atmosphere of 5% CO2/95%. After 1 h media was exchanged with Assay Buffer (Zen-Bio) containing forskolin (1 μM) (added to all samples except untreated controls) and test peptides. Cells were incubated for a further 3 hours at 37° C. in a humidified atmosphere of 5% CO2/95%. Free fatty acid concentrations in the media were determined using a Free Fatty Acid Assay Kit (Zen-Bio) according to the manufacturer's instructions using a plate reader (540 nm). Absorbance values were corrected for untreated background and expressed relative to forskolin treated cells. Treatment with forskolin (1 μM) alone was used as the free fatty acid level stimulatory control. The relative standard deviation of the forskolin control was <20%. […] Free fatty acid levels for insulin (100 nM) treatment were <8% of the forskolin control value.

[4] = test system: Diet Induced Obese (DIO) mice; assay: Body weight, blood glucose and fat mass in Diet Induced Obese mice, 10 days (Example 6); assay type: in vivo, Male C57BL/6 mice; settings: male DIO mice; 10 days twice daily intraperitoneal 15 mg/kg; N = 8; mean
Procedure: Animals were randomized to treatment groups based on blood glucose levels and body weight. The peptides of the invention were administered to two groups of male DIG mice once or twice daily by subcutaneous or intraperitoneal injection at a dose of 15 mg/kg/dose for 10 days (N=8 animals per treatment group). An additional group of male DIG mice (n=8) received vehicle (water or saline) alone. Body weight, blood glucose levels and food intake were monitored. Body mass distribution (fat vs lean) was determined by quantitative whole body NMR prior to dosing and at the end of dosing.

3T3-L1 Adipocytes [5] = assay: Free fatty acid levels in cultured mouse 3T3-L1 adipocytes, isoproterenol stimulated (Example 2); assay type: cell-based; settings: test peptides 25 μM; isoproterenol 1 nM
Outline: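 Release of free fatty acids, read at 540 nm, was stimulated with 1 nM isoproterenol for 3 h in mouse 3T3-L1 adipocytes (12–17 days of differentiation). Cells were pre-exposed to 25 μM peptide for 18–20 h plus 1 h, with peptide kept in during stimulation. Values are background-subtracted and normalised to isoproterenol alone.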

3T3-L1 Adipocytes [6] = assay: Free fatty acid levels in cultured mouse 3T3-L1 adipocytes, isoproterenol stimulated (Example 17); assay type: cell-based; settings: Peptide Concentration 25 μM; isoproterenol 1 nM
Procedure: Mouse 3T3-L1 cells were seeded at a density between 1,000-20,000 cells per well on 96-well, 48-well, or 24-well plates in Pre-adipocyte Medium (Zen-Bio, Durham, N.C.) and grown to confluence at 37° C. in a humidified atmosphere of 5% CO2/95% air. Two days after confluence, cells were placed in Adipocyte Differentiation Medium (Zen-Bio, Durham, N.C.) and cultured for three additional days at 37° C. in a humidified atmosphere of 5% CO2/95% air. The culture media was then replaced with Adipocyte Maintenance Medium (Zen-Bio) and the cells were maintained for an additional 9-14 days at 37° C. in a humidified atmosphere of 5% CO2/95% air with partial medium replacement every other day. Following 12-17 days of differentiation, test peptides were added at a final concentration of 25-50 μM and incubated for 18-20 hours in Adipocyte Maintenance Medium at 37° C. in a humidified atmosphere of 5% CO2/95%. After the media incubation, media was removed and exchanged with Assay Buffer (Zen-Bio) containing isoproterenol (1 nM) (added to all samples except untreated controls) and the test peptides. Cells were incubated for a further 3 hours at 37° C. in a humidified atmosphere of 5% CO2/95%. Free fatty acid concentrations in the media were determined using a Free Fatty Acid Assay Kit (Zen-Bio) according to the manufacturer's instructions using a plate reader (540 nm).
Absorbance values were corrected for untreated background and expressed relative to isoproterenol treated cells. Treatment with isoproterenol (1 nM) alone was used as the free fatty acid level stimulatory control. The relative standard deviation of the isoproterenol control was <10%. […] Free fatty acid levels for insulin (100 nM) treatment were <5% of the isoproterenol control value.

% Remaining at Each Time Point: 0 min ([2]; 0 min): 100%
remaining at 0.25 h, 10 uM ([2]; pooled mouse plasma, 15 min, read-out: % Remaining at Each Time Point: 15 min): 66.5%
remaining at 0.5 h, 10 uM ([2]; pooled mouse plasma, 30 min, read-out: % Remaining at Each Time Point: 30 min): 33%
remaining at 1 h, 10 uM ([2]; pooled mouse plasma, 60 min, read-out: % Remaining at Each Time Point: 60 min): 7.31%
remaining at 2 h, 10 uM ([2]; pooled mouse plasma, 120 min, read-out: % Remaining at Each Time Point: 120 min): 0%
remaining at 3 h, 10 uM ([2]; pooled mouse plasma, 180 min, read-out: % Remaining at Each Time Point: 180 min): 0%
Substance: H-MRWQEMGYIFYPRKL-OH [compound 45]
Free Fatty Acid Levels in Human Primary Adipocytes Expressed as a Percent of Isoproterenol Control: Percent of Control Value (Human Primary Adipocytes [1]): 22.2%
Free Fatty Acid Levels in Human Primary Adipocytes Expressed as a Percent of Forskolin Control: Percent of Control Value (Human Primary Adipocytes [3]): 125%
Difference from Vehicle Control: Decrease from Baseline in Blood Glucose [4]: 6.00 mg/dL
Difference from Vehicle Control: Decrease from Baseline in Body Weight (%) [4]: −2.01%
Difference from Vehicle Control: Decrease from Baseline in Fat Mass [4]: -0.69 g
Free Fatty Acid Levels in 3T3-L1 Adipocytes Expressed as a Percent of Isoproterenol Control: Percent of Control Value (3T3-L1 Adipocytes [5]): 37.9%

Substance: H-QEMNYIFYP-OH [compound 363]
Free Fatty Acid Levels in 3T3-L1 Adipocytes Expressed as a Percent of Isoproterenol Control: Percent of Control Value (3T3-L1 Adipocytes [6]): 131.5%

Substance: H-QEMNYIFYPR-OH [compound 366]
Free Fatty Acid Levels in 3T3-L1 Adipocytes Expressed as a Percent of Isoproterenol Control: Percent of Control Value (3T3-L1 Adipocytes [6]): 82.0%

Substance: H-RWQEM-OH [compound 351]
Free Fatty Acid Levels in 3T3-L1 Adipocytes Expressed as a Percent of Isoproterenol Control: Percent of Control Value (3T3-L1 Adipocytes [6]): 100.1%

Substance: H-RWQEMNYIFYPR-NH2 [compound 354]
Free Fatty Acid Levels in 3T3-L1 Adipocytes Expressed as a Percent of Isoproterenol Control: Percent of Control Value (3T3-L1 Adipocytes [6]): 92.3%

Substance: H-WQEMNYIFY-OH [compound 365]
Free Fatty Acid Levels in 3T3-L1 Adipocytes Expressed as a Percent of Isoproterenol Control: Percent of Control Value (3T3-L1 Adipocytes [6]): 85.6%

Substance: H-YIFYPR-OH [compound 296]
Free Fatty Acid Levels in 3T3-L1 Adipocytes Expressed as a Percent of Isoproterenol Control: Percent of Control Value (3T3-L1 Adipocytes [6]): 85.0%
